According to patent US4855426A, “Process of preparing 1,5-epoxy-2,3,4,5-tetrahydro-1H-3-benzazepins” (Ortho Pharmaceutical Corporation, priority 1988, dated 1989):
Counter-ions that a name gives are not always drawn. Like-named read-outs stand apart in the source and are kept apart here.

How the values were obtained:
[1] = test system: parietal cells; assay: Isolated Parietal Cell Assay, 14C-aminopyrine accumulation in histamine stimulated parietal cells; type: cell-based, rabbit; conditions: Oryctolagus cuniculus, 20 min, read-out: IC50, inhibition of 14C-AP accumulation in the histamine stimulated parietal cell
Procedure: The isolated parietal cell assay was conducted using the procedures of Batzri, S., et al., Biochemica et Biophysica Acta 508, 328 (1978) and Soll, A. H., Am. J. Physiol. 238, G366 (1980). Basically, parietal cells were isolated from the fundic mucosa of rabbit stomachs by a four-stage collagenase digestion process. The supernatant fraction from the last two stages of this process contain the individual parietal cells. This cell suspension was centrifuged and reconstituted in a modified Hank's buffer to contain 2-3×10^6 cells/ml. […] The accumulation was stimulated by histamine and was blocked by H2 antagonists. The cells were incubated with 0.5×10^6 cpm ^14 C-AP, with various concentrations of histamine, 1×10^-5 M isobutylmethylxanthine, and the test compound added in a 20 μl volume of buffer or DMSO. The flasks were incubated in a shaking water bath at 37° C. for 20 minutes. Two aliquots were then taken from each flask and cell pellets were collected by centrifugation. The pellets were solubilized with Protosol (New England Nuclear) and radioactivity determined by liquid scintillation spectrometry. Data is presented as the IC50, the concentration of compound required to inhibit ^14 C-AP accumulation in the histamine stimulated parietal cell by 50%.

[2] = test system: Lesions; assay: Cytoprotection, ethanol (necrotizing agent) induced lesions in rats; type: in vivo, male Charles River Sprague Dawley derived rats; conditions: oral, 50% EtOH one hour later
Procedure: The cytoprotective activity of the compounds was tested using a modification of the method of Robert, A., et al., Gastroenterology 77, 433 (1979). Basically, male Charles River Sprague Dawley derived rats weighing between 140 and 220 g were fasted overnight, but allowed water ad libitum. They were deprived of water during the experiment, however. The rats were weighed and pretreated orally with the test compound in a dose volume of 1 ml/kg. One hour later, the necrotizing agent was administered orally, usually 50% EtOH, in a dose volume of 1 ml/animal. After an additional hour, the rats were sacrificed with CO2, the stomachs removed, inflated with distilled water, opened along the greater curvature and laid out on a flat surface. The presence of mucosal bleeding and incidence of lesions were noted, and after wiping off the mucosa the presence of submucosal bleeding and incidence of lesions were also noted.

[3] = test system: Gastric Secretion; assay: Gastric Secretion, betazole stimulated, dogs with total gastric fistulas; type: in vivo, Female dogs; conditions: gastric fistula dogs
Description: This is a secondary test used to follow-up compounds which have shown gastric antisecretory activity in the four-hour pylorus ligated rat (Example 42). Female dogs were surgically prepared with total gastric fistulas and allowed to recover.

[4] = test system: acid output; assay: Gastric Secretion, inhibition of acid output in pylorus ligated rats; type: in vivo, male Charles River Sprague Dawley derived rats; conditions: Rattus norvegicus, 4 h, intraduodenal, four hours
Procedure: (§1) The inhibitory activity of the compounds on acid output was tested using pylorus ligation in a modification of the procedure of Shay, H., et al., Gastroenterology 26, 906 (1954). Basically, male Charles River Sprague Dawley derived rats weighing 150-300 grams were deprived of food but not water for 18-24 hours prior to use. Water was withheld during the experiment, however. The rats were weighed, anesthetized with ether and the pylorus ligated according to the method of Shay et al., supra. Treatment or vehicle control was then administered intraduodenally (i.d.). Rats were housed two/cage and sacrificed with CO2 four hours after ligation. The stomachs were removed, rinsed, and contents emptied into a graduated centrifuge tube. The tubes were centrifuged, the volume of gastric juice recorded, and any samples obviously contaminated by feces, food or blood were eliminated. A 1 ml aliquot of gastric juice was titrated with 0.1N NaOH to a pH of 7.0-7.4. The volume of gastric juice secreted, the acid concentration, and the product of the volume times the concentration, i.e., the total amount of acid secreted, were measured.

[5] = test system: Pepsin; assay: In Vivo Pepsin Assay, radioenzymatic, gastric juice of pylorus ligated rat
Procedure: as §1
Pepsin activity was measured by a radioenzymatic assay. An aliquot of a 1:1000 dilution of rat gastric juice was incubated with the substrate solution (containing methyl-^14 C-methylated methemoglobin and nonradioactive methemoglobin in 10 mM sodium citrate buffer, pH 3.0) for a period of ten minutes at 37° C. After this time, trichloroacetic acid was added to stop the reaction and to precipitate the unreacted substrate. After removal of the precipitate by centrifugation, an aliquot of the supernatant fraction is quantitated for radioactivity by liquid scintillation spectrometry. Rat gastric juice samples were obtained after drug administration in the pylorus ligated rat (Example 42). Data is presented as the percent inhibition of pepsin activity in drug treated gastric samples compared to enzyme activity observed for control gastric juice samples. […]

[6] = rabbit parietal cells, 37° C., 20 minutes, 1×10^-5 M isobutylmethylxanthine

FC(F)(F)c1cccc(C23CNCC(O2)c2ccccc23)c1 (stereo not shown) [Example 2, 1,5-Epoxy-1-[(3-trifluoromethyl)phenyl]-1,2,4,5-tetrahydro-3-benzazepin oxalate]
IC50 [1]: 3.5 µM | % Inhibition of Lesions, Mucosa ([2]; 25 mg/kg): 56% | % Inhibition of Lesions, Submucosa ([2]; 25 mg/kg): 56% | % Inhibition of Gastric Secretion ([3]; 2 mg/kg (ig)): 53% | % Inhibition of Gastric Secretion ([3]; 40 mg/kg (route not given)): 75% | inhibition in vivo at 25 mg/kg [4]: 71%

FC(F)(F)c1cccc(C23CN(CCCN4CCOCC4)CC(O2)c2ccccc23)c1 (stereo not shown) [Example 3, 1,5-Epoxy-3-[N-(3-morpholinopropyl)-1-[(3-trifluoromethyl)phenyl]-1,2,4,5-tetrahydro-3-benzazepin dioxalate]
inhibition in vivo at 25 mg/kg [4]: 48%

FC(F)(F)c1cccc(C23CN(CCCOc4cccc(CN5CCCCC5)c4)CC(O2)c2ccccc23)c1 (stereo not shown) [Example 4, 3-[3-[[3-(1-Piperidinyl)methyl]phenoxy]propyl]-1,5-epoxy-1-(3-trifluoromethyl)phenyl-1,2,4,5-tetrahydro-3-benzazepin dioxalate monohydrate]
% Inhibition of Pepsin Activity ([5]; 40 mg/kg): 52% | IC50 [1, 6]: 4.5 µM | % Inhibition of Lesions, Mucosa ([2]; 10 mg/kg): 70% | % Inhibition of Lesions, Submucosa ([2]; 10 mg/kg): 80% | % Inhibition of Lesions, Mucosa ([2]; 20 mg/kg): 88% | % Inhibition of Lesions, Submucosa ([2]; 20 mg/kg): 100% | % Inhibition of Gastric Secretion ([3]; 7.3 mg/kg (iv)): 85% | % Inhibition of Gastric Secretion ([3]; 20 mg/kg (ig)): 48% | inhibition in vivo at 40 mg/kg [4]: 46%

CN(C)Cc1ccc(CSCCN2CC3OC(c4cccc(C(F)(F)F)c4)(C2)c2ccccc23)o1 (stereo not shown) [Example 5, 3-[2-[[[5-(Dimethylamino)methyl-2-furanyl]methylthio]ethyl]-1,5-epoxy-1-[3-trifluoromethyl)phenyl-1,2,4,5-tetrahydro-3-benzazepin dioxalate]
% Inhibition of Pepsin Activity ([5]; 20 mg/kg): 28-43% | IC50 [1, 6]: 1 to 1.3 µM | % Inhibition of Lesions, Mucosa ([2]; 10 mg/kg): 10% | % Inhibition of Lesions, Submucosa ([2]; 10 mg/kg): 30% | inhibition in vivo at 20 mg/kg [4]: 46%

c1ccc(C23CNCC(O2)c2ccccc23)cc1 (stereo not shown) [Example 7, 1,5-Epoxy-1-phenyl-1,2,4,5-tetrahydro-3-benzazepin]
inhibition in vivo at 50 mg/kg [4]: 68%

c1ccc(C23CN(CCCOc4cccc(CN5CCCCC5)c4)CC(O2)c2ccccc23)cc1 (stereo not shown) [Example 11, 3-[3-[[3-(1-Piperidinyl)methyl]methyl]phenoxy]propyl]-1,5-epoxy-1-phenyl-1,2,4,5-tetrahydro-3-benzazepin dioxalate hemihydrate]
% Inhibition of Pepsin Activity ([5]; 40 mg/kg): 30% | IC50 [1, 6]: 3.5 µM | % Inhibition of Lesions, Mucosa ([2]; 40 mg/kg): 80% | % Inhibition of Lesions, Submucosa ([2]; 40 mg/kg): 100% | inhibition in vivo at 40 mg/kg [4]: 39%

CN(C)Cc1ccc(CSCCN2CC3OC(c4ccccc4)(C2)c2ccccc23)o1 (stereo not shown) [Example 12, 3-[2-[[[5-(Dimethylamino)methyl-2-furanyl]methylthio]ethyl]-1,5-epoxy-1-phenyl-1,2,4,5-tetrahydro-3-benzazepin dioxalate hemihydrate]
IC50 [1, 6]: 0.25 to 0.37 µM | % Inhibition of Lesions, Mucosa ([2]; 10 mg/kg): 20% | % Inhibition of Lesions, Submucosa ([2]; 10 mg/kg): 11%

C=CCN1CC2OC(C1)c1cc(Cl)ccc12 (stereo not shown) [Example 13, 3-Allyl-7-chloro-1,5-epoxy-1,2,4,5-tetrahydro-3-benzazepin oxalate.1/4H2 O]
inhibition in vivo at 50 mg/kg [4]: 33%

Clc1ccc2c(c1)C1CNCC2O1 (stereo not shown) [Example 14, 7-Chloro-1,5-epoxy-1,2,4,5-tetrahydro-3-benzazepin oxalate.1/4H2 O]
inhibition in vivo at 50 mg/kg [4]: 40%

c1ccc(CN2CC3OC(C2)c2ccccc23)cc1 [Example 18, 3-Benzyl-1,5-epoxy-1,2,4,5-tetrahydro-3-benzazepin oxalate]
inhibition in vivo at 50 mg/kg [4]: 23%

c1ccc2c(c1)C1CN(CCCN3CCOCC3)CC2O1 [Example 22, 1,5-Epoxy-3-[N-(3-morpholinopropyl)]-1,2,4,5-tetrahydro-3-benzazepin dioxalate]
inhibition in vivo at 50 mg/kg [4]: 33%

c1ccc2c(c1)C1CNCC2(C2OCCO2)O1 (stereo not shown) [Example 30, 1-(1,3-Dioxolan-2-yl)-1,5-epoxy-1,2,4,5-tetrahydro-3-benzazepin]
inhibition in vivo at 50 mg/kg [4]: 23%

COc1cc2c(cc1OC)C1CN(CCSCc3ccc(CN(C)C)o3)CC2O1 [Example 36, 3-[2-[[[5-(Dimethylamino)methyl-2-furanyl]methylthio]ethyl]-1,5-epoxy-7,8-dimethoxy-1,2,4,5-tetrahydro-3-benzazepin dioxalate monohydrate]
IC50 [1, 6]: 30 µM | inhibition in vivo at 20 mg/kg [4]: 26%
